Assay results as given in paper PMC3706206 (Chemico-biological interactions, 2011).
Where two headings read alike, the source gives them in different places. Each block holds one molecule with its values, some of them ahead of it.

Experiments:
[1] = test system: SK-MEL-28 melanoma cells; experiment: Effect of modulators on CAPE toxicity; type: cell-based, human; conditions: for MTT assay value, modulator alone, Cells (1% DMSO) / MTT assay value, modulator alone, Cells: no CAPE, MK-571 10 µM, probenecid 500 µM, ethacrynic acid 2 µM; for decrease of the IC50 value of CAPE (30 µM): MK-571 10 µM or probenecid 500 µM with CAPE 30 µM; for MTT assay value, No modulator / MTT assay value, Ethacrynic acid (2 µM) / MTT assay value, MK-571 (10 µM) / MTT assay value, Probenecid (500 µM): 48 h; for MTT assay value, Ethacrynic acid (2 µM): 1 h pretreatment with EA; for MTT assay value, MK-571 (10 µM): 1 h pretreatment with MK-571; for MTT assay value, Probenecid (500 µM): 1 h pretreatment with probenecid
[2] = test system: GST in human SK-MEL-28 melanoma cell homogenate; experiment: Inhibition of GST in human SK-MEL-28 melanoma cell homogenate; type: biochemical; conditions: 15–100 µM, in the presence of tyrosinase (10 U/mL)
[3] = test system: SK-MEL-28 melanoma cells; experiment: MTT cell cytotoxicity assay; type: cell-based, human; conditions: for IC50: Homo sapiens, SK-MEL-28, 48 h, read-out: IC50 (48 h)
[4] = biological target: T1, human placenta GST (hGSTP1-1) (Homo sapiens, UniProt P09211); experiment: Inhibition of human placenta GST; type: biochemical; conditions: for GST inhibition in the absence and presence of tyrosinase: controls; for GST activity inhibition: quinone formed with tyrosinase; for GST inhibition: 25 µM
T1 sequence (P09211 2-210 limits assumed): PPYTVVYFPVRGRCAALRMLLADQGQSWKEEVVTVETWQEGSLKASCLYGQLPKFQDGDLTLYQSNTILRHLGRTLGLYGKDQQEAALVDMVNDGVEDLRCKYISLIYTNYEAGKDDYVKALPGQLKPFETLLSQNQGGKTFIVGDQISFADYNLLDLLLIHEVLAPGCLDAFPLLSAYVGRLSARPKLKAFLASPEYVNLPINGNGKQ

[5] = test system: tyrosinase; experiment: Metabolism by tyrosinase; type: biochemical, Mushroom
[6] = biological target: T2, GST (human placenta, hGSTP1-1) (Homo sapiens, UniProt P09211); experiment: GST substrate assay; type: biochemical; conditions: for substrate for GST (GSH consumption as biomarker): GST 0.1 U/mL, GSH 500 µM, no tyrosinase, up to 60 min at 37 °C
T2 sequence (P09211 2-210 limits assumed): as above

[7] = biological target: T1, human placenta GST (hGSTP1-1); experiment: Reversible/irreversible nature of GST inhibition; type: biochemical; conditions: GST activity after filtering the reaction mixture through 10 K Millipore filter; 25 µM
[8] = test system: SK-MEL-28 melanoma cells; experiment: Mitochondrial membrane potential assay; type: cell-based, human; conditions: for increase of the effect of CAPE (15–30 µM) on mitochondrial membrane potential: MK-571 10 µM or probenecid 500 µM, approximate; for further decrease of mitochondrial membrane potential for CAPE (15 µM) / further decrease of mitochondrial membrane potential for CAPE (30 µM): combination with MK-571 10 µM or probenecid 500 µM, 48 h
[9] = test system: SK-MEL-28 cells; experiment: Annexin V-FITC/propidium iodide apoptosis assay; type: cell-based, human; conditions: for increase of CAPE (15 µM) induced apoptotic cell death / increase of CAPE (30 µM) induced apoptotic cell death: MK-571 10 µM or probenecid 500 µM, 1 h pretreatment, 48 h
[10] = biological target: T2, GST (human placenta, hGSTP1-1); experiment: Competitive and non-competitive GST inhibition, Lineweaver-Burk plots, Ki; type: biochemical; conditions: for Mechanism of GST inhibition, with respect to GSH (0.2–1 mM): Inhibition / Mechanism of GST inhibition, with respect to CDNB (0.2–1 mM): Inhibition: CAPE 100 µM, CAPE-quinone 10 µM, CAPE-SG 10 µM, EA 20 µM; for Ki′ with respect to CDNB (0.2–1 mM) / Ki′ with respect to GSH (0.2–1 mM): mixed inhibition; for Ki: apparent Ki
[11] = cited from earlier work
[12] = 30 µM, 48 h incubation (data not shown)
[13] = read-out: Ki with respect to CDNB (0.2–1 mM), GSH 1 mM
[14] = read-out: Ki with respect to GSH (0.2–1 mM), CDNB 1 mM

Molecule: CCCCS(=N)(=O)CCC(N)C(=O)O (centres unmarked) [BSO]
effect on CAPE induced toxicity in SK-MEL-28 cells ([1]; data not shown): enhanced

GST inhibition in the absence and presence of tyrosinase [4]: no GST inhibition | substrate for tyrosinase [5]: substrates for tyrosinase
Molecule: N[C@@H](Cc1ccc(O)cc1)C(=O)O [tyrosine, L-tyrosine]
GST inhibition in SK-MEL-28 melanoma cell homogenate [2]: did not show any significant GST inhibition | cell toxicity [3, 12]: 2–27% | IC50 [3]: > 5000 µM | substrate for GST (GSH consumption as biomarker) [6]: none of these tested compounds, including CAPE, 4-HA, tyrosine, and CA, was a substrate for GST

GST inhibition in the absence and presence of tyrosinase [4]: no GST inhibition | substrate for tyrosinase [5]: substrates for tyrosinase
Molecule: COc1ccc(O)cc1 [4-HA, 4-hydroxyanisole]
cell toxicity [3, 12]: 2–27% | IC50 [3]: 60 µM | substrate for GST (GSH consumption as biomarker) [6]: none of these tested compounds, including CAPE, 4-HA, tyrosine, and CA, was a substrate for GST

Molecule: C=C(CC)C(=O)c1ccc(OCC(=O)O)c(Cl)c1Cl [Ethacrynic acid, ethacrynic acid]
effect on the IC50 value of CAPE towards melanoma cells ([1]; EA 2 µM): did not affect | MTT assay value, modulator alone, Cells (1% DMSO) [1]: 96 ± 3 | MTT assay value, modulator alone, Cells [1]: 97 ± 4

reversible or irreversible nature of GST inhibition [7]: weak and reversible inhibitors of GST | substrate for tyrosinase [5]: substrates for tyrosinase
Molecule: O=C(O)/C=C/c1ccc(O)c(O)c1 [CA, caffeic acid]
cell toxicity [3, 12]: 2–27% | IC50 [3]: 2300 µM | substrate for GST (GSH consumption as biomarker) [6]: none of these tested compounds, including CAPE, 4-HA, tyrosine, and CA, was a substrate for GST

Molecule: CN(C)C(=O)CCSC(SCCC(=O)O)c1cccc(/C=C/c2ccc3ccc(Cl)cc3n2)c1 (centres unmarked) [MK-571]
decrease of the IC50 value of CAPE (30 µM) [1]: 12% | MTT assay value, modulator alone, Cells (1% DMSO) [1]: 97 ± 1 | MTT assay value, modulator alone, Cells [1]: 98 ± 3 | increase of the effect of CAPE (15–30 µM) on mitochondrial membrane potential [8]: 3–4 fold | further decrease of mitochondrial membrane potential for CAPE (15 µM) [8]: 10% | further decrease of mitochondrial membrane potential for CAPE (30 µM) [8]: 29% | increase of CAPE (15 µM) induced apoptotic cell death [9]: 3% | increase of CAPE (30 µM) induced apoptotic cell death [9]: 7%

Molecule: caffeic acid glutathione conjugate [CA-SG conjugate]
reversible or irreversible nature of GST inhibition [7]: reversibly

reversible or irreversible nature of GST inhibition [7]: irreversibly
Molecule: O=C(O)/C=C/C1=CC(=O)C(=O)C=C1 [CA-quinone]

GST activity inhibition ([4]; 50 µM): no significant GST inhibition
Molecule: COC1=CC(=O)C(=O)C=C1 [4-HA-quinone]

Molecule: N[C@@H](CC1=CC(=O)C(=O)C=C1)C(=O)O [tyrosine–quinone]
GST activity inhibition ([4]; 50 µM): no significant GST inhibition

Molecule: CCCN(CCC)S(=O)(=O)c1ccc(C(=O)O)cc1 [probenecid]
decrease of the IC50 value of CAPE (30 µM) [1]: 9% | MTT assay value, modulator alone, Cells (1% DMSO) [1]: 99 ± 6 | MTT assay value, modulator alone, Cells [1]: 97 ± 5 | increase of the effect of CAPE (15–30 µM) on mitochondrial membrane potential [8]: 8–11 fold | further decrease of mitochondrial membrane potential for CAPE (15 µM) [8]: 56% | further decrease of mitochondrial membrane potential for CAPE (30 µM) [8]: 68% | increase of CAPE (15 µM) induced apoptotic cell death [9]: 13% | increase of CAPE (30 µM) induced apoptotic cell death [9]: 16% | change of CAPE-induced apoptotic cell death ([9]; probenecid 500 µM, CAPE at 15 or 30 µM): approximately doubled

reversible or irreversible nature of GST inhibition [7]: irreversible covalent binding | Mechanism of GST inhibition, with respect to GSH (0.2–1 mM): Inhibition ([10]; CDNB 1 mM): Competitive | Mechanism of GST inhibition, with respect to CDNB (0.2–1 mM): Inhibition ([10]; GSH 1 mM): Mixed | Ki′ with respect to CDNB (0.2–1 mM) ([10]; GSH 1 mM): 8.8 µM | Ki [10, 13]: 2.7 µM | Ki [10, 14]: 0.7 µM | GST activity inhibition ([4]; 10 µM): 70% | GST inhibition [4]: ≥ 85% | GST activity inhibition ([4]; 50 µM): 93%
Molecule: O=C(/C=C/C1=CC(=O)C(=O)C=C1)OCCc1ccccc1 [CAPE-quinone]

Molecule: caffeic acid phenethyl ester glutathione conjugate [CAPE-SG conjugate]
reversible or irreversible nature of GST inhibition [7]: reversible | Mechanism of GST inhibition, with respect to GSH (0.2–1 mM): Inhibition ([10]; CDNB 1 mM): Mixed | Ki′ with respect to GSH (0.2–1 mM) ([10]; CDNB 1 mM): 14 µM | Mechanism of GST inhibition, with respect to CDNB (0.2–1 mM): Inhibition ([10]; GSH 1 mM): Competitive | Ki [10, 13]: 3.1 µM | Ki [10, 14]: 2.6 µM | GST inhibition [4]: ≥ 85%

reversible or irreversible nature of GST inhibition [7]: weak and reversible inhibitors of GST | Mechanism of GST inhibition, with respect to GSH (0.2–1 mM): Inhibition ([10]; CDNB 1 mM): Mixed | Ki′ with respect to GSH (0.2–1 mM) ([10]; CDNB 1 mM): 2990 µM | Mechanism of GST inhibition, with respect to CDNB (0.2–1 mM): Inhibition ([10]; GSH 1 mM): Mixed | Ki′ with respect to CDNB (0.2–1 mM) ([10]; GSH 1 mM): 451 µM | Ki ([10]; Ki with respect to CDNB (0.2–1 mM), GSH 1 mM): 233 µM | Ki ([10]; Ki with respect to GSH (0.2–1 mM), CDNB 1 mM): 942 µM | inhibition at 50 µM ([4]; read-out: GST activity inhibition): 13% | substrate for tyrosinase [5]: substrates for tyrosinase | CAPE metabolized by tyrosinase ([5]; after a 60-min incubation): 90%
Molecule: O=C(/C=C/c1ccc(O)c(O)c1)OCCc1ccccc1 [CAPE, caffeic acid phenethyl ester]
MTT assay value, No modulator ([1]; CAPE 15 µM): 52 ± 2 | MTT assay value, Ethacrynic acid (2 µM) ([1]; CAPE 15 µM): 51 ± 2 | MTT assay value, MK-571 (10 µM) ([1]; CAPE 15 µM): 39 ± 3 | MTT assay value, Probenecid (500 µM) ([1]; CAPE 15 µM): 31 ± 2 | MTT assay value, No modulator ([1]; CAPE 30 µM): 38 ± 2 | MTT assay value, Ethacrynic acid (2 µM) ([1]; CAPE 30 µM): 39 ±4 | MTT assay value, MK-571 (10 µM) ([1]; CAPE 30 µM): 26 ± 1 | MTT assay value, Probenecid (500 µM) ([1]; CAPE 30 µM): 29 ± 1 | cell toxicity ([3]; 15 µM, 48 h incubation): 48% | IC50 [3]: 15 µM | stability in human plasma [11]: highly stable | substrate for GST (GSH consumption as biomarker) [6]: none of these tested compounds, including CAPE, 4-HA, tyrosine, and CA, was a substrate for GST

Molecule: O=[N+]([O-])c1ccc(Cl)c([N+](=O)[O-])c1 [CDNB, 1-chloro-2,4-dinitrobenzene]
glutathione consumed per mole of CDNB ([6]; CDNB metabolized by GST, 60 min incubation, positive control): 0.6 mol
